Laboratory results as given in patent publication EP1245247A1, “Biocidal locks” (Biolink Corporation, priority 2001, dated 2002).

Legend:
S. epidermis = conditions: cited from earlier work
blood = assay: Clotting of pig blood collected into containers holding taurolidine solution (Example 1); conditions: pig blood filled up to the 30 mL level; inspected after 30 minutes
Experimental: A 0.5% solution of taurolidine in Ringer-lactate solution (Thomae, Biberach, Germany) was introduced into each of four polyethylene bottles having a 30 mL volume. Filling volumes were 5, 10, and 15 mL. One bottle was filled with 5 mL of the taurolidine solution and 2 mL ACD-A (Fresenius, Bad Homburg, Germany) solution. ACD-A solution is used for the conservation of whole blood and contains per liter: 22.0 grams of sodium citrate dihydrate, 7.3 grams of citric acid and 34.5 grams of glucose monohydrate.
Blood was collected at a slaughter house from a female pig directly from the slaughter wound into the containers that were then filled up to the 30 mL level. The containers were capped and gently moved to mix blood with the solution. The containers were inspected after 30 minutes. Blood in the containers containing only taurolidine was clotted, but the blood in the container containing the mixture of taurolidine and ACD-A was not clotted.

[1] = mice; cited from earlier work
E. coli = conditions: intravenous 0.2 mL of a 20% solution in sterile 5% polyvinyl pyrrolidone; intraperitoneal E. coli; cited from earlier work
B. fragilis = conditions: intravenous 0.2 mL of a 20% solution in sterile 5% polyvinyl pyrrolidone; intraperitoneal B. fragilis; cited from earlier work
[2] = test system: Vancomycin-Intermediate Susceptibility Staphylococcus Aureus (VISA) and Methicillin-Resistant Staphylococcus Aureus (MRSA); conditions: range pH 7.0 to pH 5.0; cited from earlier work
[3] = mouse, in vivo; cited from earlier work

**Q.** With CN[C@H](CC(C)C)C(=O)N[C@H]1C(=O)N[C@@H](CC(N)=O)C(=O)N[C@H]2C(=O)N[C@H]3C(=O)N[C@H](C(=O)N[C@H](C(=O)O)c4cc(O)cc(O)c4-c4cc3ccc4O)[C@H](O)c3ccc(c(Cl)c3)Oc3cc2cc(c3O[C@@H]2O[C@H](CO)[C@@H](O)[C@H](O)[C@H]2O[C@H]2C[C@](C)(N)[C@H](O)[C@H](C)O2)Oc2ccc(cc2Cl)[C@H]1O [Vancomycin] as the molecule, how does the bactericidal dose (S. epidermis; initial inocula of 10^3 CFU/mL) read?
**A.** 6.7 µg/mL

**Q.** With O=C([O-])CN(CCN(CC(=O)[O-])CC(=O)O)CC(=O)O.[Na+].[Na+] [disodium EDTA] as the molecule, how does the bactericidal concentration (S. epidermis; initial inoculum of 10^3 CFU of staphylococci per mL, in 24 hours) read?
**A.** 20 mg/mL

**Q.** For O=S1(=O)CCN(CN2CCS(=O)(=O)NC2)CN1 [taurolidine, bis-(1,1-dioxo-perhydroxy-1,2,4-thiadiazin-4-yl)methane], which “Blood clotting in the containers” value (blood) is on record?
**A.** clotted

**Q.** And the “intraperitoneal LD50” value [1]?
**A.** ~1500 mg/kg

**Q.** What about the mortality rate (E. coli) of the same molecule?
**A.** very significantly reduce the mortality rate

**Q.** What about the mortality rate (B. fragilis) of the same molecule?
**A.** very significantly reduce the mortality rate

**Q.** And the “dependence of activity on pH” value [2]?
**A.** activity increases with decreasing pH

**Q.** And the teratogenicity [3]?
**A.** non-teratogenic
